Experimental data from US6596763B1, “Topical formulations containing as a therapeutic active agent fatty acids or fatty alcohols or monoglyceride derivatives thereof for treating of mucosa infections” (priority 1996, dated 2003).

Experiments:
[1] = tested on: HIV-2; conditions: 25 mM, human plasma, 30 min; cited from earlier work
[2] = tested on: HIV-1; conditions: 25 mM, human plasma, 30 min; cited from earlier work
[3] = tested on: HSV-1; test: Virucidal activity against HSV-1 in culture medium (MM); type: cell-based, Herpes simplex virus type 1; conditions: room temperature, 1 minute
[4] = tested on: HSV-1; test: Virucidal activity against HSV-1 in human semen; conditions: room temperature, 1 minute
[5] = tested on: C. trachomatis; test: Inactivation of C. trachomatis; conditions: 37° C., 10 minutes
[6] = tested on: Enveloped viruses; conditions: virucidal activity in cell culture media; cited from earlier work
[7] = tested on: VV; test: Virucidal activity against visna virus (VV) in culture medium (MM); type: cell-based; conditions: room temperature, 1 minute
Method: The lipids were dissolved in ethanol at a concentration of 1 M and stored at 4° C. In each experiment they were suspended in MM by vortexing at the highest speed for 1 min.

[8] = tested on: vaginal mucosa of rabbits; conditions: rabbit, in vivo

CCCCCCCCOC[C@@H](O)CO [1-0-Octyl-SN-glycerol]
inactivated HIV-2 [1]: more than 10^9 fold | inactivated HIV-1 [2]: more than 10^9 fold

CCCCCCCCCC(=O)O [Capric acid, capric acid]
Reduction of virus titer,log10 HSV-1 ([3]; lipid 20 mM in MM): <0.5 log10

CCCCCCCC(=O)OCC(O)CO (stereo not shown) [Caprylic acid 1-monoglyceride, caprylic acid 1-monoglyceride]
Reduction of virus titer,log10 HSV-1 ([3]; lipid 10 mM in MM): 0 log10 | Reduction of virus titer,log10 HSV-1 ([3]; lipid 20 mM in MM): 0.5 log10 | Reduction of HSV-1 titer, log10 ([4]; monoglyceride 20 mM): 1.0 log10 | Reduction of IFU (log10) ([5]; monoglyceride 5 mM in medium): 0.1 log10 | Reduction of IFU (log10) ([5]; monoglyceride 10 mM in medium): 0.3 log10 | Reduction of IFU (log10) ([5]; monoglyceride 20 mM in medium): 0.2 log10

CCCCCCCCCCCC(=O)OCC(O)CO (stereo not shown) [Lauric acid 1-monoglyceride, lauric acid 1-monoglyceride]
Reduction of virus titer,log10 HSV-1 ([3]; lipid 5 mM in MM): 3.0 log10 | Reduction of virus titer,log10 HSV-1 ([3]; lipid 10 mM in MM): 3.5 log10 | Reduction of virus titer,log10 HSV-1 ([3]; lipid 20 mM in MM): 3.1 log10 | Reduction of HSV-1 titer, log10 ([4]; monoglyceride 20 mM): 2.0 log10 | more active than the corresponding free fatty acid (capric and lauric acids) [6]: 10 fold | Reduction of IFU (log10) ([5]; monoglyceride 5 mM in medium): 0.5 log10 | Reduction of IFU (log10) ([5]; monoglyceride 10 mM in medium): 0.7 log10 | Reduction of IFU (log10) ([5]; monoglyceride 20 mM in medium): 0.5 log10

CCCCCCCCCCCC(=O)O [Lauric acid, lauric acid]
Reduction of virus titer,log10 HSV-1 ([3]; lipid 10 mM in MM): <1.5 log10 | Reduction of virus titer,log10 HSV-1 ([3]; lipid 20 mM in MM): >5.8 log10

CCCCCCCCCC(=O)OCC(O)CO (stereo not shown) [Monocaprin, capric acid 1-monoglyceride]
Reduction of virus titer,log10 HSV-1 ([3]; lipid 2.5 mM in MM): 2.2 log10 | Reduction of virus titer,log10 HSV-1 ([3]; lipid 5 mM in MM): >5.5 log10 | Reduction of virus titer,log10 HSV-1 ([3]; lipid 10 mM in MM): >5.3 log10 | Reduction of virus titer,log10 HSV-1 ([3]; lipid 20 mM in MM): >5.8 log10 | Reduction of HSV-1 titer, log10 ([4]; monoglyceride 10 mM): 3.0 log10 | Reduction of HSV-1 titer, log10 ([4]; monoglyceride 20 mM): >4.0 log10 | more active than the corresponding free fatty acid (capric and lauric acids) [6]: 10 fold | Reduction of virus titer,log10 VV ([7]; lipid 10 mM in MM): 2.4 log10 | Reduction of virus titer,log10 VV ([7]; lipid 20 mM in MM): 3.8 log10 | Reduction of IFU (log10) ([5]; monoglyceride 5 mM in medium): >5.6 log10 | Reduction of IFU (log10) ([5]; monoglyceride 10 mM in medium): >5.6 log10 | Reduction of IFU (log10) ([5]; monoglyceride 20 mM in medium): >4.6 log10

CCCCCCCCCCCCCC(=O)O [Myristic acid, myristic acid]
Reduction of virus titer,log10 HSV-1 ([3]; lipid 10 mM in MM): 0 log10 | Reduction of virus titer,log10 HSV-1 ([3]; lipid 20 mM in MM): 0 log10

CCCCCCCC/C=C\CCCCCCCC(=O)OCC(O)CO (stereo not shown) [Oleic acid 1-monoglyceride, oleic acid 1-monoglyceride]
Reduction of virus titer,log10 HSV-1 ([3]; lipid 10 mM in MM): <1.0 log10 | Reduction of virus titer,log10 HSV-1 ([3]; lipid 20 mM in MM): <1.0 log10

CCCCCCCC/C=C\CCCCCCCC(=O)O [Oleic acid, oleic acid]
Reduction of virus titer,log10 HSV-1 ([3]; lipid 10 mM in MM): <1.0 log10 | Reduction of virus titer,log10 HSV-1 ([3]; lipid 20 mM in MM): <1.0 log10

CCCCCC/C=C\CCCCCCCC(=O)OCC(O)CO (stereo not shown) [Palmitoleic acid 1-monoglyceride, palmitoleic acid 1-monoglyceride]
Reduction of virus titer,log10 HSV-1 ([3]; lipid 10 mM in MM): 0 log10 | Reduction of virus titer,log10 HSV-1 ([3]; lipid 20 mM in MM): 0 log10 | Reduction of virus titer,log10 VV ([7]; lipid 10 mM in MM): 0.7 log10

CCCCCC/C=C\CCCCCCCC(=O)O [Palmitoleic acid, palmitoleic acid]
Reduction of virus titer,log10 HSV-1 ([3]; lipid 5 mM in MM): <1.0 log10 | Reduction of virus titer,log10 HSV-1 ([3]; lipid 10 mM in MM): >5.0 log10

CC(O)CO (stereo not shown) [propylene glycol]
effects in the vaginal mucosa of rabbits (in words) [8]: toxic effects
